Here are results for five compounds from publication PMC9114338 (Scientific Reports, 2022).

The nature of data set [1]: MALDI imaging mass spectrometry of dermal tissues adjacent to the implant. It is filed as in vivo, C57BL/6 J mice. The following applies: for Detection by MALDI-IMS in dermal tissue samples during implant TAF delivery: all medicated specimens; for Spatial distribution in dermal tissue sections (MALDI-IMS): high-releasing (0.58 mg d^-1) implants, D3–D28; for MALDI-IMS signal and localization with implant in situ: low-releasing (0.23 mg d^-1) implants, Day 14, 100 µm resolution. As to the method: The used implants, the surrounding capsule, and the encasing dermal tissue were removed as a block in accordance with ISO 10993-6 guidelines, processed and stored, as described elsewhere. Briefly, the capsule was cut longitudinally and rolled open, taking care not to disrupt the architecture of the tissue or to damage the used implant. A portion of the tissue specimen was placed into 4% paraformaldehyde solution (phosphate-buffered at pH 7.2), and stored at 4 °C, for histopathology and two other portions were flash-frozen in liquid nitrogen for drug concentration analysis as well as for drug spatial distribution analysis by MALDI-IMS (vide infra).
Frozen mouse tissue specimens were shipped to Vanderbilt University on dry ice and stored at − 80 °C prior to use. Tissues were removed from the − 80 °C freezer and placed in a − 20 °C cryostat (CM 1900, Leica Biosystems, Buffalo Grove, IL) and sectioned. Tissue samples that had been prepared via removal of the used implant were affixed to the cryostat chuck with optimal cutting temperature (OCT) polymer and were cut on the cryostat into 12 µm thick sections for imaging mass spectrometry and H&E staining.
Tissue samples that still contained the implant in place were embedded in OCT prior to sectioning. In order to minimize the artifactual signal from the TAF powder after sectioning (the act of the cryostat blade cutting through an intact implant distributed residual TAF powder that still remained in the used implant onto the surrounding tissue section), house vacuum was used to remove visible TAF powder, followed by lightly running nitrogen gas over the plate to remove any additional loose powder from the slide.
The tissue sections were thaw-mounted onto indium-tin oxide coated glass slides for imaging (Delta Technologies, Ltd, Loveland, CO). The tissue sections were left to dry for at least 15 min in a desktop vacuum desiccator prior to matrix application. […] For 9AA, four passes were applied at 85 °C in a crisscross pattern, with a 700 mm min^-1 stage velocity, 2 mm track spacing, and 0.15 mL min^-1 flow rate. For DHB the same method was used, except eight passes were applied and the stage velocity was 1300 mm min^-1.
Flash-frozen dermal tissue samples collected adjacent to the TAF implants and sectioned were analyzed with a linear ion trap mass spectrometer equipped with a MALDI source and a nitrogen laser (LTQ XL, Thermo Scientific, Waltham, MA). The structures of compounds of interest are shown in Scheme 1. Targeted MS/MS methods were optimized for each compound using authentic samples as standards, with the final parameters shown in Appendix A under Supplementary Information. Pseudo-selected reaction monitoring mode was used for imaging by isolating precursor ions with a 1 Da window, fragmenting them, and acquiring full product ion mass spectra at each pixel. TFV, TFV-MP, and TFV-DP were analyzed in negative ion mode, while TAF, Metabolite X, and Metabolite Y were analyzed in positive ion mode. In most cases, after imaging, the matrix was removed and the tissue section that had been imaged was H&E stained for better image registration with tissue morphology. Standard images were acquired at either 50 or 100 µm spatial resolution. Reconstructed ion images were generated in ImageQuest software (Thermo Scientific, Waltham, MA) by plotting the intensity of the diagnostic fragment ion or ions as a function of location across the tissue surface.

For data set [2] the following is noted: rat, in vivo; cited from earlier work.
Data set [3] is described as follows: Intravenous TAF pharmacokinetic mouse study (plasma, PBMC, tissue homogenate). The following applies: for half-life: C57BL/6 J, mouse, iv, 0.5 mg. The format is in vivo, C57BL/6 J mice. The procedure: C57BL/6 J Mice (9 groups of 4 animals each; 36 mice total) were administered the study product (0.5 mg dose, 0.1 mL) by intravenous (IV) injection. Animals (N = 4) were sacrificed at the following timepoints: Day 1 (1, 3, 6, 12, 24 h), Day 2, 4, 8, and 14. Blood was collected by exsanguination along with select tissue specimens (vide infra).
The isolation of plasma and PBMCs from blood samples was carried out in a laminar flow hood using aseptic techniques, and the entire process was completed in under 45 min to minimize analyte metabolism. Blood was transferred into collection tubes containing sodium citrate (final concentration, 0.4% w/v), diluted using one volume equivalent of 1 × PBS solution, and mixed by inversion. The minimum final volume was 4.0 mL. Prior to the addition of blood samples, Ficoll-Paque media (MilliporeSigma, Burlington, MA, 3.2 mL) was transferred into a 12 mL LeucoSep tube (Greiner, Monroe, NC) and centrifuged at 1000 g for 20 s at room temperature, causing the media to settle just below the porous barrier. The homogenous, diluted blood-PBS mixture was transferred into the prepared LeucoSep tube and centrifuged at 1000 g for 10 min at room temperature, resulting in the formation of three layers above the porous barrier: (A) top layer, consisting of the plasma fraction; (B) middle, interface layer, containing the PBMCs; and (C) thin lower layer, just above the barrier, consisting of Ficoll-Paque media. Layer A (plasma) was transferred to empty 1.5 mL microfuge tubes in 0.5 mL aliquots, and flash-frozen in liquid nitrogen. Layer B (PBMCs) was transferred into an empty 15 mL centrifuge tube and PBS added to the 12 mL mark, followed by gentle inversion mixing. The suspension was centrifuged at 400 g for 15 min, the supernatant removed, and the pellet resuspended in PBS (10 mL) by gentle pipetting. An aliquot (10 µL) was removed from the suspension for cell counting and the remaining sample was centrifuged at 400 g for 15 min. The supernatant was removed without disturbing the cell pellet, which was treated with ice-cold 70% v/v methanol in molecular-grade water (1.0 mL). The mixture was mixed lightly by vortex agitation to lyse the cells, followed by transfer to a 2.0 mL cryovial that was flash-frozen in liquid nitrogen.
Vaginal, rectal, spleen, and thymus tissue samples were collected from sacrificed animals at Day 1 (12, 24 h), Day 4, and 8; rectal tissue samples were not collected at 12 h. The samples were transferred into pre-weighed sample tubes, weighed, and flash-frozen in liquid nitrogen.
(§1) PBMC results were normalized to the number of cells and reported as fmol/10^6 cells or as intracellular concentration based on cell volume, in nM. Tissue results were normalized to sample mass and reported as ng mg^-1 or fmol mg^-1.

A short description of data set [4]: Subcutaneous TAF injection pharmacokinetic mouse study. It is filed as in vivo, C57BL/6 J mice. The following applies: C57BL/6 J, PBMCs, 0.5 mg, read-out: PBMC TFV-DP t1/2 (converted). As to the method:
C57BL/6 J Mice (12 groups of 4 animals each; 48 mice total) were administered the study product (0.5 mg dose, 0.1 mL) described above by subcutaneous (SQ) injection. Animals (N = 4) were sacrificed at the following timepoints: Day 1 (1, 3, 6, 12, 24 h), Day 2, 4, 6, 8, 10, 12, and 14. Blood was collected by exsanguination and processed as described above.
as §1

Data set [5] is described as follows: Subdermal TAF implant pharmacokinetic mouse study. It is filed as in vivo. The following applies: low- and high-releasing implants.
Source text: Two study groups are described here: one low-releasing and one high-releasing implant group. Animals (N = 3 per implant group) were sacrificed at the following timepoints: Day 3, 7, 14, 21, and 28 (15 mice total per implant group).
Details of data set [6]: method as in PMID 23600365. The following applies: healthy individuals; cited from earlier work.
For data set [7], the system named is HIV-1. The following applies: cited from earlier work.

On to `C[C@H](Cn1cnc2c(N)ncnc21)OCP(=O)(O)OP(=O)(O)O` [TFV-MP], for which, in data set [1], the “Detection by MALDI-IMS in dermal tissue samples during implant TAF delivery” value (“Detection by MALDI-IMS” below) is given as “detected”; the “Spatial distribution in dermal tissue sections (MALDI-IMS)” value (from here on “Spatial distribution”) is on record as “distributed homogeneously throughout the samples”; the “MALDI-IMS signal and localization with implant in situ” value (from here on “MALDI-IMS signal and localization”) was “weak”.
Turning to `O=C(O)C[C@@H]1Cc2ccc(OCCCNc3ccccn3)cc2Cc2ccccc21` [SB-265123], the “Apparent oral F” value in data set [2] was “exceeding 100%”.
As to `C[C@H](Cn1cnc2c(N)ncnc21)OCP(=O)(O)OP(=O)(O)OP(=O)(O)O` [TFV-DP, TFV diphosphate], the half-life in data set [3] (PBMCs, read-out: PBMC TFV-DP t1/2 (converted)) was 41 h; in data set [3] (female, rectal tissue, read-out: Terminal half-life in rectal tissue (NCA) (converted)) it was 26.4 h; in data set [3] (female, spleen, read-out: Terminal half-life in spleen (NCA) (converted)) it was 23.3 h; in data set [3] (female, thymus, read-out: Terminal half-life in thymus (NCA) (converted)), 23.3 h; in data set [3] (female, vaginal tissue, read-out: Terminal half-life in vaginal tissue (NCA) (converted)), 31.2 h; in data set [4], 17 h. Moreover, the “Share of total TFV present as TFV-DP, vaginal tissue” value in data set [3] (IV TAF dosing) is on record as 5.1%. Moreover, the “Median vaginal x(TFV-DP) lower than rectal, spleen, thymus” value in data set [3] (IV TAF, depending on the compartment) is reported as 4.7–6.7 fold. The “Duration of TFV-DP concentrations in tissues” value in data set [3] (single bolus IV TAF administration) is over 8 days. Also, the “TFV-DP mole fraction x(TFV-DP), vaginal tissue, median (IQR)” value in data set [3] (tissue homogenate, IV TAF dosing) is 0.051 (0.022–0.080). Further, the “Share of total TFV species present as TFV-DP, dermal tissue adjacent to TAF implants” value in data set [5] is “less than 1%”. Further, the “Detection by MALDI-IMS” value in data set [1] is recorded as “detected”. Also, the “Spatial distribution” value in data set [1] is listed as “distributed homogeneously throughout the samples”. The “MALDI-IMS signal and localization” value in data set [1] is given as “weak”. Further, the “Intracellular (PBMC) TFV-DP half-life” value in data set [6] is 48 h. The “TFV-DP EC90 (more conservative)” value in data set [7] (corrected for TFV-DP loss on cryopreservation) is 24 to 48 fmol/10^6 cells. In data set [7] (post hoc analysis of iPrEX, cryopreserved PBMCs), the “PBMC TFV-DP concentration associated with 90% protection” value is 16 fmol/10^6 cells.
`C[C@H](Cn1cnc2c(N)ncnc21)OC[P@@](=O)(O)N[C@@H](C)C(=O)O` [Metabolite X]: in data set [1], the “Detection by MALDI-IMS” value was “detected”; the “Spatial distribution” value is “localized close to the implant”; the “MALDI-IMS signal and localization” value is recorded as “localized close to the implant”.
For the compound `CC(C)OC(=O)[C@H](C)N[P@](=O)(O)CO[C@H](C)Cn1cnc2c(N)ncnc21` [Metabolite Y], in data set [1], the “Detection by MALDI-IMS” value is “detected”; the “Spatial distribution” value is “localized close to the implant”; the “MALDI-IMS signal and localization” value is recorded as “localized close to the implant”.
